Test results: patent US10106627B2, “Process for the preparation of polymeric biosurfactants” (priority 2014, dated 2018)

Columns and labels:
[1] = system: TNF-α in RAW 264.7 cells; assay: LPS-induced TNF-α ELISA in RAW 264.7 cells; assay type: cell-based, mouse; settings: 50 μg ml^−1; LPS 100 ng ml^−1 24 h; LPS alone 215.79
Protocol: The effect of Brevisan, Microsan and M-EPS-Au-NP on the release of proinflammatory cytokines, TNF-α and IL-6, was measured using ELISA kits (Biosource International, Camarillo, Calif., USA). In independent experiments, the RAW-264.7 cells were treated with different concentrations (1, 10, 50 and 100 μg ml^−1) of Brevisan, Microsan and M-EPS-Au-NP and then stimulated with 100 ng ml^−1 of LPS. The supernatants were harvested after 24 h and the concentrations of TNF-α and IL-6 was measured using an ELISA kit according to the manufacturer's instructions.

[2] = system: Bacillus subtilis MTCC 121; assay: Microtiter broth dilution MIC; assay type: cell-based; settings: Bacillus subtilis MTCC 121, 24 h, 35° C.
Protocol: (§1) The antimicrobial activity of Microsan and M-EPS-Au-NP was determined using the microtiter broth dilution method [Kumar, C. G. and Mamidyala, S. K. (2011) Coll. Surf B: Biointerf. 84, 462-466]. Different bacterial pathogens (10^7 cfu ml^−1 cells) were inoculated in 100 μl of Muller-Hinton broth. Different concentrations of Microsan, M-EPS-Au-NP and Brevisan were added to each strain and incubated for 24 h at 35° C. After incubation, 40 μl of p-iodonitrotetrazolium (INT, Sigma) dye (0.02%, 20 mg INT dissolved in 100 ml of 40% dimethyl formamide was added to each well and incubated for 2 h. The reduction of p-iodonitrotetrazolium was spectroscopically measured at 450 nm using TRIAD multimode reader (Dynex Technologies, Inc., Chantilly, Va.) to determine the minimum inhibitory concentration (MIC) values. Commercially available surfactin (CAS 24730-31-2; Sigma-Aldrich) and laminarin (CAS No 9008-22-4; Sigma-Aldrich) used as positive controls were run in parallel for comparison. The MIC values of Microsan and M-EPS-Au-NP observed against the tested bacterial strains are shown in Table 3.

[3] = system: Staphylococcus aureus MTCC 96; assay: Microtiter broth dilution MIC; assay type: cell-based; settings: Staphylococcus aureus MTCC 96, 24 h, 35° C.
Protocol: as §1

[4] = system: Klebsiella planticola MTCC 530; assay: Microtiter broth dilution MIC; assay type: cell-based; settings: Klebsiella planticola MTCC 530, 24 h, 35° C.
Protocol: as §1

[5] = Surface tension, Wilhelmy plate method; assay type: physicochemical; settings: from 72
Protocol: The bacterial strains producing biosurfactants were isolated from the petroleum-contaminated soil sample collected from Mupkal, Nizamabad, Andhra Pradesh, India (latitude 18.90° N and longitude 78.36° E). The soil sample was enriched by placing 1.0 g of soil sample in 100 ml of mineral salts medium supplemented with N-hexadecane (1%, v/v) as a sole carbon source for three weeks. The enriched sample was serially diluted and then plated on the mineral salts agar plates overlaid with N-hexadecane which acted as a sole carbon source. The colonies that appeared on the plates upon incubation at 37° C. for 72 h were purified for 2-3 times on nutrient agar plates. The isolated pure microorganisms were cultured in liquid mineral salts medium at 37° C. for 72 h. The cells were separated by centrifugation and the cell-free supernatant was measured for the reduction in surface tension values by Wilhelmy plate method using a Du-Nouy K100MK2 Processor Tensiometer (Krüss, Hamburg, Germany). The concentration series was generated automatically with a computer-controlled Dosimat (Metrohm AG, Switzerland). […] The critical micelle concentration (CMC) was measured by plotting the concentration of surfactant as a function of surface tension, and the CMC was taken as the point where the slope of the curve abruptly changed. […]

[6] = Lipid peroxidation assay (malondialdehyde); assay type: biochemical; settings: cell free
Protocol: The antioxidant activity of Microsan from Microbacterium sp. strain BS-2 and Brevisan from Brevibacillus sp. strain BS-207 in cell free system was measured by its inhibitory activity on the generation of DPPH free radicals, superoxide anions (O^2−), lipid peroxidation and erythrocyte hemolysis. The DPPH free radical scavenging assay was performed using 2,2-diphenyl-1-picrylhydrazyl (DPPH) free radical scavenging method [Ara. N. and Hasan, N. (2009) Res. J. Med. Medical Sci. 4, 107-110]. Different concentrations of Microsan and Brevisan were mixed individually with 150 μl of 160 μM methanolic solution of DPPH and incubated at 35° C. for 30 min in dark. The effective concentration (EC50) was calculated by measuring the absorbance of the samples at 517 nm. The superoxide anion scavenging was measured using phenazine methosulfate-nicotinamide adenine dinucleotide (PMS/NADH) method as previously described [Liu, F., Ooi, V. E. and Chang, S. T. (1997) Life Sci. 60, 763-771]. The lipid peroxidation assay was performed using the previously described method [Zhang, Q., Yu, P., Li, Z., Zhang, H., Xu, Z. and Li, P. (2003) J. Appl. Phycol. 15, 305-310] which is based on measuring the lipid peroxide decomposed product malondialdehyde (MDA). […] Samples were incubated at 37° C. for 30 min and the absorbance was measured at 540 nm. […]

## β-D-glucuronyl-(1-2)-D-mannosyl-(1-4)-D-glucose [Microsan]
[1]
  TNF-α production after treatment: 98.88 µg/mL
[2]
  Minimum inhibitory concentration (MIC): 4.68 µg/mL
[3]
  Minimum inhibitory concentration (MIC): 18.75 µg/mL
[4]
  Minimum inhibitory concentration (MIC): 9.37 µg/mL
[5]
  surface tension of water reduced to: 31.2 mN m^−1
[6]
  EC50 lipid peroxidation inhibition: 165.94 µg/mL
